Data as given in patent US20060216336A1, “Transdermal therapeutic system for Parkinson's Disease” (priority 2002, published 2006).

Assay: Multiple dose trial with rotating patch application sites in early-stage Parkinson's disease: rotigotine pharmacokinetics (Example 4)
Excerpt: Each day, a fresh patch was placed on a new skin site (abdomen, flank, upper arm, shoulder, thigh, hip) in a rotating order. The silicone transdermal patches were made in accordance with the teachings of U.S. Patent Application Publication No. US 2003/0026830 at paragraphs 38-42, U.S. Patent Application Publication No. US 2003/0027793 at paragraphs 37-41 and U.S. Pat. No. 6,884,434, columns 5-6, Example 2 and comprised the following layers and components:
The trial consisted of an Eligibility Assessment (EA), a 24-day Titration Phase (4.5 to 18.0 mg/day doses; incremental increases of 4.5mg/day every 6 days), a 6-day Maintenance Phase (18.0 mg/day dose), a 6-day De-escalation Phase (13.5/9.0/4.5mg/day decreasing dose every 2 days), and a Safety Follow-Up visit 2 days following the last dose.
The silicone transdermal patches were made in accordance with the teachings of U.S. Patent Application Publication No. US 2003/0026830 at paragraphs 3842 and U.S. Patent Application Publication No. US 2003/0027793 at paragraphs 3741 comprised the following layers and components as disclosed above
The 18.0 mg/day dose used 2×20 cm^2 patches. Initial doses were 4.5 mg/day with weekly increases of 4.5 mg/day to a maximum target dose of 18.0 mg/day.

[1] = application site Abdomen, normalized for body weight and apparent dose, Day 27 and Day 30 combined (PKS)
[2] = application site Flank, normalized for body weight and apparent dose, Day 27 and Day 30 combined (PKS)
[3] = application site Hip, normalized for body weight and apparent dose, Day 27 and Day 30 combined (PKS)
[4] = application site Shoulder, normalized for body weight and apparent dose, Day 27 and Day 30 combined (PKS)
[5] = application site Thigh, normalized for body weight and apparent dose, Day 27 and Day 30 combined (PKS)
[6] = application site Upper arm, normalized for body weight and apparent dose, Day 27 and Day 30 combined (PKS)

Compound: CCCN(CCc1cccs1)[C@H]1CCc2c(O)cccc2C1 [rotigotine, (6S)-6{propyl[2-(2-thienyl)ethyl]amino}-5,6,7,8-tetrahydro-1-naphthalenol]
- Time to Maximum Concentration (Day 30, site F (flank), Geo. Mean): 15.43 h
- Time to Maximum Concentration (Days 27 and 30 combined, site UA (upper arm), Mean): 12.71 h
- AUC0-t,ss,normalized, Range [1]: 89.3 to 952.1 ng·kg·h/mL/mg
- Cmax,ss, normalized, Geometric mean (SD) [1]: 16.367 (1.6473) ng * kg/mL/mg
- Cmax,ss, normalized, Median [1]: 14.906 ng·kg/mL/mg
- Cmax,ss, normalized, Geometric mean (SD) [2]: 17.168 (1.5894) ng * kg/mL/mg
- Cmax,ss, normalized, Mean [2]: 18.976 ng·kg/mL/mg
- Cmax,ss, normalized, Median [2]: 16.666 ng·kg/mL/mg
- Cmax,ss, normalized, Geometric mean (SD) [3]: 17.253 (1.6685) ng * kg/mL/mg
- Cmax,ss, normalized, Mean [3]: 19.956 ng·kg/mL/mg
- Cmax,ss, normalized, Median [3]: 15.577 ng·kg/mL/mg
- Cmax,ss, normalized, Geometric mean (SD) [4]: 14.499 (1.5627) ng * kg/mL/mg
- Cmax,ss, normalized, Mean [4]: 15.898 ng·kg/mL/mg
- Cmax,ss, normalized, Median [4]: 15.328 ng·kg/mL/mg
- Cmax,ss, normalized, Geometric mean (SD) [5]: 16.046 (1.5548) ng * kg/mL/mg
- Cmax,ss, normalized, Mean [5]: 17.793 ng·kg/mL/mg
- Cmax,ss, normalized, Median [5]: 15.506 ng·kg/mL/mg
- Cmax,ss, normalized, Geometric mean (SD) [6]: 16.508 (1.4597) ng * kg/mL/mg
- Cmax,ss, normalized, Mean [6]: 17.727 ng·kg/mL/mg
- Cmax,ss, normalized, Median [6]: 15.499 ng·kg/mL/mg
- plasma concentration at Time 0 (Ctrough) (human, in vivo): about 1 ng/mL
- concentration at 30 day (human, in vivo, 18 mg/day, Average Concentration, Day 30, site UA (upper arm), Median): 0.895 ng/mL
- concentration at […] (human, in vivo, 18 mg/day, rotigotine plasma concentration Geo. Mean, Hip, Day 27, 23.5 H): 0.875 ng/mL
- concentration at […] (human, in vivo, 18 mg/day, rotigotine plasma concentration Geo. Mean, Hip, Day 30, 23.5 H): 0.758 ng/mL
- concentration at […] (human, in vivo, 18 mg/day, rotigotine plasma concentration Geo. Mean, Shoulder, Day 30, 23.5 H): 0.851 ng/mL
- concentration at […] (human, in vivo, 18 mg/day, rotigotine plasma concentration Geo. Mean, Shoulder, Days 27 & 30 Combined, 23.5 H): 0.82 ng/mL
- concentration at […] (human, in vivo, 18 mg/day, rotigotine plasma concentration Geo. Mean, Thigh, Day 30, 23.5 H): 0.656 ng/mL
- concentration at 18 h (human, in vivo, 18 mg/day, rotigotine plasma concentration Geo. Mean, Thigh, Days 27 & 30 Combined, 18 H): 0.895 ng/mL
- concentration at […] (human, in vivo, 18 mg/day, rotigotine plasma concentration Geo. Mean, Thigh, Days 27 & 30 Combined, 23.5 H): 0.639 ng/mL
- concentration at […] (human, in vivo, 18 mg/day, rotigotine plasma concentration Geo. Mean, Upper Arm, Day 30, 23.5 H): 0.833 ng/mL
- concentration at […] (human, in vivo, 18 mg/day, rotigotine plasma concentration Geo. Mean, Upper Arm, Days 27 & 30 Combined, 23.5 H): 0.789 ng/mL
- concentration at […] (human, in vivo, 18 mg/day, rotigotine plasma concentration Max, Hip, Day 27, 23.5 H): 1.75 ng/mL
- concentration at […] (human, in vivo, 18 mg/day, rotigotine plasma concentration Max, Hip, Day 30, 23.5 H): 1.35 ng/mL
- concentration at […] (human, in vivo, 18 mg/day, rotigotine plasma concentration Max, Hip, Days 27 & 30 Combined, 23.5 H): 1.75 ng/mL
- concentration at […] (human, in vivo, 18 mg/day, rotigotine plasma concentration Max, Shoulder, Day 30, 23.5 H): 3.01 ng/mL
- concentration at […] (human, in vivo, 18 mg/day, rotigotine plasma concentration Max, Shoulder, Days 27 & 30 Combined, 23.5 H): 3.01 ng/mL
- concentration at […] (human, in vivo, 18 mg/day, rotigotine plasma concentration Max, Thigh, Day 30, 23.5 H): 1.59 ng/mL
- concentration at […] (human, in vivo, 18 mg/day, rotigotine plasma concentration Max, Thigh, Days 27 & 30 Combined, 23.5 H): 1.59 ng/mL
- concentration at […] (human, in vivo, 18 mg/day, rotigotine plasma concentration Max, Upper Arm, Day 27, 23.5 H): 1.88 ng/mL
- concentration at […] (human, in vivo, 18 mg/day, rotigotine plasma concentration Max, Upper Arm, Day 30, 23.5 H): 1.67 ng/mL
- concentration at […] (human, in vivo, 18 mg/day, rotigotine plasma concentration Max, Upper Arm, Days 27 & 30 Combined, 23.5 H): 1.88 ng/mL
- concentration at […] (human, in vivo, 18 mg/day, rotigotine plasma concentration Mean, Hip, Day 27, 23.5 H): 0.96 ng/mL
- concentration at […] (human, in vivo, 18 mg/day, rotigotine plasma concentration Mean, Hip, Day 30, 23.5 H): 0.82 ng/mL
- concentration at […] (human, in vivo, 18 mg/day, rotigotine plasma concentration Mean, Hip, Days 27 & 30 Combined, 23.5 H): 0.89 ng/mL
- concentration at […] (human, in vivo, 18 mg/day, rotigotine plasma concentration Mean, Shoulder, Day 30, 23.5 H): 1.02 ng/mL
- concentration at […] (human, in vivo, 18 mg/day, rotigotine plasma concentration Mean, Shoulder, Days 27 & 30 Combined, 23.5 H): 0.966 ng/mL
- concentration at […] (human, in vivo, 18 mg/day, rotigotine plasma concentration Mean, Thigh, Day 30, 23.5 H): 0.784 ng/mL
- concentration at […] (human, in vivo, 18 mg/day, rotigotine plasma concentration Mean, Thigh, Days 27 & 30 Combined, 23.5 H): 0.735 ng/mL
- concentration at […] (human, in vivo, 18 mg/day, rotigotine plasma concentration Mean, Upper Arm, Day 27, 23.5 H): 0.936 ng/mL
- concentration at […] (human, in vivo, 18 mg/day, rotigotine plasma concentration Mean, Upper Arm, Day 30, 23.5 H): 0.924 ng/mL
- concentration at […] (human, in vivo, 18 mg/day, rotigotine plasma concentration Mean, Upper Arm, Days 27 & 30 Combined, 23.5 H): 0.93 ng/mL
- concentration at […] (human, in vivo, 18 mg/day, rotigotine plasma concentration Median, Hip, Day 27, 23.5 H): 0.957 ng/mL
- concentration at […] (human, in vivo, 18 mg/day, rotigotine plasma concentration Median, Hip, Day 30, 23.5 H): 0.692 ng/mL
- concentration at […] (human, in vivo, 18 mg/day, rotigotine plasma concentration Median, Shoulder, Day 30, 23.5 H): 0.848 ng/mL
- concentration at […] (human, in vivo, 18 mg/day, rotigotine plasma concentration Median, Shoulder, Days 27 & 30 Combined, 23.5 H): 0.799 ng/mL
- concentration at […] (human, in vivo, 18 mg/day, rotigotine plasma concentration Median, Thigh, Day 30, 23.5 H): 0.68 ng/mL
- concentration at […] (human, in vivo, 18 mg/day, rotigotine plasma concentration Median, Thigh, Days 27 & 30 Combined, 23.5 H): 0.668 ng/mL
- concentration at […] (human, in vivo, 18 mg/day, rotigotine plasma concentration Median, Upper Arm, Day 30, 23.5 H): 0.899 ng/mL
- concentration at […] (human, in vivo, 18 mg/day, rotigotine plasma concentration Median, Upper Arm, Days 27 & 30 Combined, 23.5 H): 0.899 ng/mL
- concentration at […] (human, in vivo, 18 mg/day, rotigotine plasma concentration Min, Hip, Day 27, 23.5 H): 0.261 ng/mL
- concentration at […] (human, in vivo, 18 mg/day, rotigotine plasma concentration Min, Hip, Day 30, 23.5 H): 0.461 ng/mL
- concentration at […] (human, in vivo, 18 mg/day, rotigotine plasma concentration Min, Hip, Days 27 & 30 Combined, 23.5 H): 0.261 ng/mL
- concentration at […] (human, in vivo, 18 mg/day, rotigotine plasma concentration Min, Shoulder, Day 30, 23.5 H): 0.405 ng/mL
- concentration at […] (human, in vivo, 18 mg/day, rotigotine plasma concentration Min, Shoulder, Days 27 & 30 Combined, 23.5 H): 0.387 ng/mL
- concentration at […] (human, in vivo, 18 mg/day, rotigotine plasma concentration Min, Thigh, Day 30, 23.5 H): 0.152 ng/mL
